Converted amounts (≈) assume the structure as drawn. Like-named read-outs stand apart in the source and are kept apart here.

Data set [1] concerns Bacillus subtilis (Marburg strain, ATCC6051). Kind of data set: microbe, parasite or virus in culture. The data set is classed as cell-based. As to conditions: ATCC6051, read-out: Antibacterial activity, BS (Bacillus substilis), MIC class.
In data set [2] the test system is Streptococcus pneumoniae (Chester, ATCC49619). Kind of data set: Broth microdilution MIC assay, Streptococcus pneumoniae. Format: cell-based. As to conditions: for Antibacterial activity Streptococcus pneumoniae: MIC class score, MIC100, broth microdilution; for MIC: Streptococcus pneumoniae, ATCC49619, read-out: Antibacterial activity, SP (Streptococcus pneumoniae), MIC class. A general note: Dilution methods test growth across graded concentrations, often in twofold steps.

The subject of data set [3] is vancomycin-resistant Enterococcus faecium (ATCC51559). Kind of data set: microbe, parasite or virus in culture. The data set is classed as cell-based.
The test system of data set [4] is Mycobacterium smegmatis (mc(2)155). Kind of data set: Broth microdilution MIC assay, Mycobacterium smegmatis.
Data set [5] relates to Staphylococcus aureus MSSA (Newman). Kind of data set: Broth microdilution MIC assay, Staphylococcus aureus MSSA (Newman). The settings on record: for Antibacterial activity Staphylococcus aureus (MSSA): MIC class score, MIC100, broth microdilution, Newman strain. Format: cell-based.
For data set [6], the system named is daptomycin-resistant Staphylococcus aureus (from MRSA COL). Kind of data set: Broth microdilution MIC assay, daptomycin-resistant MRSA. Format: cell-based. The settings on record: 24 h, read-out: Antibacterial activity, MRSA strains with additional resistance, D (daptomycin), MIC class.
In data set [7] the test system is vancomycin-resistant Enterococcus faecalis (ATCC51575). Kind of data set: microbe, parasite or virus in culture. The settings on record: ATCC51575; vancomycin-resistant Enterococcus faecalis; read-out: Antibacterial activity, VREFs (vancomycin-resistant EFs), MIC class. Format: cell-based.
Data set [8] relates to linezolid-resistant Staphylococcus aureus (from MRSA COL). Kind of data set: Broth microdilution MIC assay, linezolid-resistant MRSA. Format: cell-based. The settings on record: 24 h, read-out: Antibacterial activity, MRSA strains with additional resistance, L (linezolid), MIC class.
Data set [9] has as its system platensimycin-resistant Staphylococcus aureus (from MRSA COL). Kind of data set: Broth microdilution MIC assay, platensimycin-resistant MRSA. Format: cell-based. As to conditions: 24 h, read-out: Antibacterial activity, MRSA strains with additional resistance, P (platensimycin), MIC class.
In data set [10] the test system is Staphylococcus aureus MRSA (COL). Kind of data set: Broth microdilution MIC assay, Staphylococcus aureus MRSA (COL). As to conditions: MIC class score, MIC100, broth microdilution, COL strain. Format: cell-based.
The test system of data set [11] is MRSA (COL) resistant to triclosan. Kind of data set: Broth microdilution MIC assay, triclosan-resistant MRSA. The settings on record: Staphylococcus aureus, read-out: Antibacterial activity, MRSA strains with additional resistance, T (triclosan), MIC class.
Data set [12] concerns Staphylococcus epidermidis (PCI 1200, ATCC12228). Kind of data set: Broth microdilution MIC assay, Staphylococcus epidermidis. Format: cell-based. As to conditions: read-out: Antibacterial activity, SE (Staphylococcus epidermidis), MIC class.
For data set [13], the system named is vancomycin-resistant Staphylococcus aureus (from MRSA COL). Kind of data set: Broth microdilution MIC assay, vancomycin-resistant MRSA. The data set is classed as cell-based. The settings on record: 24 h, read-out: Antibacterial activity, MRSA strains with additional resistance, V (vancomycin), MIC class.
For data set [14], the system named is moenomycin-resistant Staphylococcus aureus (from MRSA COL). Kind of data set: Broth microdilution MIC assay, moenomycin-resistant MRSA. The data set is classed as cell-based. The settings on record: 24 h, read-out: Antibacterial activity, MRSA strains with additional resistance, M (moenomycin), MIC class.
In data set [15] the test system is Enterococcus faecalis (ATCC29212). Kind of data set: Broth microdilution MIC assay, Enterococcus faecalis. Format: cell-based. The settings on record: read-out: Antibacterial activity, EFs (Enterococcus faecalis), MIC class.
The subject of data set [16] is Enterococcus faecium (AGR15, ATCCBAA-2127). Kind of data set: Broth microdilution MIC assay, Enterococcus faecium. Format: cell-based. As to conditions: ATCCBAA2127, read-out: Antibacterial activity, EFm (Enterococcus faecium), MIC class.
Where [17] appears, read: ATCC51559, vancomycin-resistant Enterococcus faecium, read-out: Antibacterial activity, VREFm (vancomycin-resistant EFm), MIC class.

As for `Cc1nc(-c2ccc(-c3ccc(Cl)cc3C(F)(F)F)o2)[nH]c1-c1ccccc1` [compound 32], the MIC in [1] lay in the range of 3 to 10 µg/mL (≈ 7.45 to 24.8 µM); in data set [2] it was 2 to 5 µg/mL (≈ 4.97 to 12.4 µM); in [3] (setting [17]), 20 to 50 µg/mL (≈ 49.7 to 124 µM). In addition, the “Antibacterial activity Streptococcus pneumoniae” value in data set [2] is on record as 3 (MIC100 of 2-5 μg/ml).
As to `Cc1[nH]c(-c2ccc(-c3ccc(Cl)cc3)s2)nc1-c1ccccc1` [compound 6], the MIC in [1] fell in the range of 11 to 20 µg/mL (≈ 31.4 to 57 µM). In data set [2], the “Antibacterial activity Streptococcus pneumoniae” value was 3 (MIC100 of 2-5 μg/ml). Besides, the “Antibacterial activity, MS (Mycobacterium smegmatis), MIC class” value (from here on “Antibacterial activity, MS”) in data set [4] is on record as 2 (MIC100 of 11-20 μg/ml).
For `Cc1ccccc1-c1c[nH]c(-c2ccc(-c3ccccc3OC(F)(F)F)o2)n1` [compound 66], the “Antibacterial activity Staphylococcus aureus (MSSA)” value in data set [5] is recorded as 3 (MIC100 of 3-10 μg/ml). The MIC in data set [2] was under 1 µg/mL; in [6], 1 to 3 µg/mL (≈ 2.6 to 7.81 µM); in [7] it was 20 to 50 µg/mL (≈ 52 to 130 µM); in data set [3] (setting [17]) it was 20 to 50 µg/mL (≈ 52 to 130 µM); in [8] it was 1 to 3 µg/mL (≈ 2.6 to 7.81 µM); in data set [9], 11 to 20 µg/mL (≈ 28.6 to 52 µM). In data set [4], the “Antibacterial activity, MS” value is listed as 2 (MIC100 of 11-20 μg/ml). In addition, the “Antibacterial activity Staphylococcus aureus (MRSA)” value in [10] was 2 (MIC100 of 11-20 μg/ml).
`Cc1[nH]c(-c2ccc(-c3ccccc3OC(F)(F)F)o2)nc1Cc1ccc(Br)cc1` [compound 30, 4-(4-Bromo-benzyl)-5-methyl-2-[5-(2-trifluoromethoxy-phenyl)-furan-2-yl]-1H-imidazole]: the MIC in data set [6] fell in the range of 1 to 3 µg/mL (≈ 2.1 to 6.29 µM); in [3] (setting [17]) it was 20 to 50 µg/mL (≈ 41.9 to 105 µM); in [11], 11 to 20 µg/mL (≈ 23 to 41.9 µM); in data set [12] it was 11 to 20 µg/mL (≈ 23 to 41.9 µM); in [9], 20 to 50 µg/mL (≈ 41.9 to 105 µM).
Turning to `Cc1nc(-c2ccc(-c3ccc(C(F)(F)F)cc3)o2)[nH]c1-c1ccccc1` [compound 45], the MIC in data set [2] is under 1 µg/mL; in data set [6] it was 1 to 3 µg/mL (≈ 2.71 to 8.14 µM); in data set [7], 20 to 50 µg/mL (≈ 54.3 to 136 µM); in [13], 1 to 3 µg/mL (≈ 2.71 to 8.14 µM); in data set [8], 1 to 3 µg/mL (≈ 2.71 to 8.14 µM).
`Cc1nc(-c2ccc(-c3cccc(OC(F)(F)F)c3)o2)[nH]c1-c1ccccc1` [compound 34]: in data set [2], the “Antibacterial activity Streptococcus pneumoniae” value was 3 (MIC100 of 2-5 μg/ml). Also, the MIC in [2] was in the range of 2 to 5 µg/mL (≈ 5.2 to 13 µM); in data set [14], 3 to 10 µg/mL (≈ 7.81 to 26 µM); in [3] (setting [17]), 20 to 50 µg/mL (≈ 52 to 130 µM); in data set [11] it was 3 to 10 µg/mL (≈ 7.81 to 26 µM); in [9] it was 11 to 20 µg/mL (≈ 28.6 to 52 µM); in data set [15], 20 to 50 µg/mL (≈ 52 to 130 µM). Moreover, the “Antibacterial activity, MS” value in data set [4] was 2 (MIC100 of 11-20 μg/ml).
Take `Cc1nc(-c2ccc(-c3ccc(Cl)c(OC(F)(F)F)c3)o2)[nH]c1-c1ccc(Cl)cc1` [compound 44]: the MIC in [2] was under 1 µg/mL; in [7], 11 to 20 µg/mL (≈ 24.3 to 44.1 µM); in data set [3] (setting [17]), 11 to 20 µg/mL (≈ 24.3 to 44.1 µM); in [12], 11 to 20 µg/mL (≈ 24.3 to 44.1 µM); in [16] it was 20 to 50 µg/mL (≈ 44.1 to 110 µM); in data set [15] it was 20 to 50 µg/mL (≈ 44.1 to 110 µM). The “Antibacterial activity Staphylococcus aureus (MRSA)” value in [10] is 2 (MIC100 of 11-20 μg/ml).
With `Cc1nc(-c2ccc(-c3ccccc3OC(F)(F)F)o2)[nH]c1-c1ccccc1Cl` [compound 19], the MIC in data set [2] was under 1 µg/mL; in [6], 3 to 10 µg/mL (≈ 7.16 to 23.9 µM); in data set [3] (Enterococcus faecium, ATCC51559, read-out: Antibacterial activity, VREFm (vancomycin-resistant EFm), MIC class), 20 to 50 µg/mL (≈ 47.8 to 119 µM); in [8], 3 to 10 µg/mL (≈ 7.16 to 23.9 µM). In addition, the “Antibacterial activity, MS” value in data set [4] is listed as 2 (MIC100 of 11-20 μg/ml).
As to `FC(F)(F)Oc1ccccc1-c1ccc(-c2nc(-c3ccc(Cl)cc3Cl)c[nH]2)o1` [compound 68], in [5], the “Antibacterial activity Staphylococcus aureus (MSSA)” value is reported as 2 (MIC100 of 11-20 μg/ml). Further, the MIC in data set [5] (Staphylococcus aureus, read-out: Antibacterial activity, MSSA (Staphylococcus aureus MSSA), MIC class) was in the range of 11 to 20 µg/mL (≈ 25 to 45.5 µM); in data set [2], 6 to 10 µg/mL (≈ 13.7 to 22.8 µM); in data set [6] it was 1 to 3 µg/mL (≈ 2.28 to 6.83 µM); in data set [9], 20 to 50 µg/mL (≈ 45.5 to 114 µM).
As to `Cc1[nH]c(-c2ccc(-c3ccccc3OC(F)(F)F)o2)nc1-c1ccccc1` [compound 18], the “Antibacterial activity Streptococcus pneumoniae” value in [2] is 3 (MIC100 of 2-5 μg/ml). Besides, the MIC in data set [2] was in the range of 2 to 5 µg/mL (≈ 5.2 to 13 µM); in [7], 20 to 50 µg/mL (≈ 52 to 130 µM); in data set [3] (setting [17]), 20 to 50 µg/mL (≈ 52 to 130 µM); in data set [16], 20 to 50 µg/mL (≈ 52 to 130 µM); in data set [15] it was 20 to 50 µg/mL (≈ 52 to 130 µM).
